Results on 8 molecules are retold here after paper PMC11597202, “Novel Thiazole-Fused [4,5-g] or [5,4-g]Quinazolin-8-ones and Their Quinazoline Analogues: Synthesis and Biological Evaluation” (Pharmaceuticals, 2024).

The test system of series [1] is seven tumor cell lines. The series can be described thus: In vitro cytotoxic assay, whole panel of cancer cell lines. The format is cell-based, human. The conditions noted are these: 48 h; for IC50: Homo sapiens, lowest to highest IC50 among the seven cancer cell lines, read-out: IC50 span over the cancer cell lines. The procedure: (§1) Skin normal fibroblastic cells were purchased from Lonza (Basel, Switzerland). […] All culture media were supplemented by 10% of FBS, 1% of penicillin–streptomycin and 2 mM glutamine.
(§2) Chemicals were solubilized in DMSO at a concentration of 10 mM (stock solution) and diluted in culture medium to the desired final concentrations. […] Cells were plated in 96-well plates (4000 cells/well). Twenty-four hours after seeding, the cells were exposed to chemicals. […] Image acquisition and analysis were performed using a Cellomics ArrayScan VTI/HCS Reader (ThermoScientific, Les Ulis, France). The survival percentages were calculated as the percentage of cell number after compound treatment over cell number after DMSO treatment. The relative IC50 values were calculated using the curve fitting XLfit 5.5.0.5 (idbs) integrated in Microsoft Excel as an add-on.
(§3) 4.3.1. Cell culture. Skin normal fibroblastic cells are purchased from Lonza (Basel, Switzerland). Huh7- […]
(§4) from ATCC (American Type Culture Collection). […]
(§5) supplemented by 10% of FBS, 1% of penicillin-streptomycin and 2 mM glutamine.
(§6) 4.3.2. Cytotoxic assay. Chemicals were solubilized in DMSO at a concentration of 10 mM (stock solution) and diluted in culture medium to the desired final concentrations. The dose effect cytotoxic assays (IC50 determination) were performed by increasing the concentrations of each chemical (final well […]
(§7) Cells were plated in 96-well plates
(§8) (4000 cells/well). Twenty-four hours after seeding, cells were exposed to chemicals. After 48h of treatment, cells were washed in PBS and fixed in cooled 90% ethanol/5% acetic acid for 20 min and the […]
(§9) Image acquisition and analysis were performed using a Cellomics ArrayScan VTI/HCS Reader (ThermoScientific). The survival percentages were calculated as the percentage of cell number after compound treatment over cell number after DMSO treatment. The relative IC50 were calculated using the curve fitting XLfit 5.5.0.5 (idbs) integrated in Microsoft Excel as an add-on. The 4 Parameter Logistic Model or Sigmoidal Dose-Response Model describing the sigmoid-shaped response pattern was used (fit = (A+[(B-A)/(1+[(C/x)^D])]) where fit is the response and X is the tested concentration of the compound. The lower asymptote is A (also referred to as the bottom of the curve or lower plateau or the min) and the upper asymptote is B (also referred to as the top of the curve or upper plateau or the max). The slope of the linear part of the curve is described by the factor D. The parameter C is the concentration corresponding to the response midway between A and B. C is called “relative IC50” because it refers to the maximum response obtained by a […]
(§10) The results are represented as the mean ± standard error (SE) calculated from at least three independent experiments.

Series [2] is described as follows: In vitro cytotoxic assay, PC-3. Also: 0.1-25 µM tested. The conditions noted are these: human, PC-3 cells (prostate cancer cell line). The series is classed as cell-based. The procedure:
as §1, §2, §3, §4, §5, §6, §7, §8, §9, §10

In series [3] the target is T1, GSK-3β (Homo sapiens, UniProt P49841).
T1 construct: host or cells: Sf9 insect cells (baculovirus)
T1 sequence (P49841 whole entry): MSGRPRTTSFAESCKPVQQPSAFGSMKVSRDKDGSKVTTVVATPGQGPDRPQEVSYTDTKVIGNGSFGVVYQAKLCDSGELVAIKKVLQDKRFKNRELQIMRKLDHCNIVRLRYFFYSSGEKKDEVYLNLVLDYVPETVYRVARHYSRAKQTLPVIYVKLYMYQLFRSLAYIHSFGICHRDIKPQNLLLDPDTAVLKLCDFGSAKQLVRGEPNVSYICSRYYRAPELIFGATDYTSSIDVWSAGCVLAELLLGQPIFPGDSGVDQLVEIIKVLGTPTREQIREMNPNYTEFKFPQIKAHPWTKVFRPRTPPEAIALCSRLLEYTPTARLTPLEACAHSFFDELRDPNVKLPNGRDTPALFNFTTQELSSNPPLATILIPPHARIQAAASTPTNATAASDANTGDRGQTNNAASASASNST
The experiment in a line: ADP-Glo kinase inhibition assay, GSK-3β. The format is biochemical. Particulars: percentage of maximum activity of the DMSO control, mean n = 2, 10 µM ATP, read-out: Residual activity GSK-3β; for remaining activity at 1 µM: 1 μM compound; for remaining activity at 10 µM: 10 μM compound. The procedure:
Kinase enzymatic activities were assayed in 384-well plates using the ADP-Glo^TM assay kit (Promega, Madison, WI, USA) according to the recommendations of the manufacturer. This luminescent ADP detection assay was described by Zegzouti and co-workers and provides a homogeneous and high-throughput screening method to measure kinase activity by quantifying the amount of ADP produced during a kinase reaction. Briefly, the reactions were carried out in a final volume of 6 µL for 30 min at 30 °C in an appropriate kinase buffer (10 mM MgCl2, 1 mM EGTA, 1 mM DTT, 25 mM Tris-HCl pH 7.5, 50 µg/mL heparin), with peptide or protein as substrate in the presence of 10 µM ATP. Peptide substrates were obtained from ProteoGenix (Schiltigheim, France) or Sigma for Histone H1, Poly (L-glutamic acid–L-tyrosine) sodium salt, Casein and MBP. After that, 6 µL of ADP-Glo^TM Kinase Reagent was added to stop the kinase reaction. After an incubation time of 50 min at room temperature (rt), 12 µL of Kinase Detection Reagent was added for one hour at rt. The transmitted signal was measured using the Envision (PerkinElmer, Waltham, MA, USA) microplate luminometer and expressed as Relative Light Units (RLUs). Kinase activities are expressed as percentages of remaining kinase activities detected after treatment with 1 or 10 µM of the tested compounds. The maximum kinase activity was measured in the absence of inhibitor but with an equivalent dose of DMSO (solvent of the tested compounds).
3. Kinase inhibition assays
Kinase enzymatic activities were assayed in 384-well plates using the ADP-GloTM assay kit (Promega, Madison, WI) according to the recommendations of the manufacturer. This luminescent ADP detection assay was described by Zegzouti and co-workers and provides a homogeneous and high-throughput screening method to measure kinase activity by quantifying the amount of ADP produced during a kinase reaction. Briefly, the reactions were carried out in a final volume of 6 µl for 30 min at 30°C in appropriate kinase buffer (10 mM MgCl2, 1 mM EGTA, 1 mM DTT, 25 mM Tris-HCl pH 7.5, 50 µg/mL heparin), with peptide or protein as substrate in the presence of 10 µM ATP. Peptide substrates were obtained from ProteoGenix (Schiltigheim, France) or Sigma for Histone H1, Poly (L-glutamic acid – L-tyrosine) sodium salt, Casein and MBP. After that, 6 µL of ADP-GloTM Kinase Reagent was added to stop the kinase reaction. After an incubation time of 50 min at room temperature (rt), 12 µL of Kinase Detection Reagent was added for 1 h at rt. The transmitted signal was measured using the Envision (PerkinElmer, Waltham, MA) microplate luminometer and expressed in Relative Light Unit (RLU). Kinase activities are expressed in percentages of remaining kinase activities detected after treatment with 1 or 10 µM of the tested compounds. The maximal kinase activity is measured in the absence of inhibitor but with an equivalent dose of DMSO (solvent of the tested compounds).
Table. Human protein kinases tested in the panel: CDK9, HASPIN, PIM1, GSK3b, CK1ε, JAK3, CLK1 […]
1 Peptide substrates were obtained from ProteoGenix (Schiltigheim, France) or Sigma for Histone H1, Poly (L-glutamic acid – L-tyrosine) sodium salt, Casein and MBP; 2 “Sp” stands for phosphorylated serine.
Controls inhibitors: To validate each kinase assay, the following model inhibitors were used under the same conditions than the tested compounds: Staurosporine from Streptomyces sp.

A short description of series [4]: In vitro cytotoxic assay, MCF-7. Also: 0.1-25 µM tested. The format is cell-based. The conditions noted are these: human, MCF-7 cells (breast cancer cell line). The procedure:
as §1, §2, §3, §4, §5, §6, §7, §8, §9, §10

The subject of series [5] is DYRK1A. The conditions noted are these: in Figure 3; cited from earlier work.

In the case of `COC(=N)c1nc2cc3c(=O)n(Cc4ccccc4)cnc3cc2s1` [Compound 6a, Methyl 7-benzyl-8-oxo-7,8-dihydrothiazolo[4,5-g]quinazoline-2-carbimidate], in series [1], the IC50 is 17 to 27 µM. In addition, the midpoint of inhibition in series [2], the IC50 at 48 h, lay at 20 µM. Moreover, in series [3], the remaining activity at 1 µM stood at 94% and the remaining activity at 10 µM worked out at 76%. The IC50 at 48 h in series [4] worked out at 17 µM.
On to `COC(=N)c1nc2cc3ncnc(Nc4ccc(OC)cc4F)c3cc2s1` [Compound 15b, Methyl 8-[(2-fluoro-4-methoxyphenyl)amino]thiazolo[5,4-g]quinazoline-2-carbimidate], for which the “Cytotoxicity over the cell lines studied (in words)” value in series [1] (0.1-25 μM) is “did not show detectable cytotoxicity”. For the same molecule, in series [3], the remaining activity at 1 µM is 101% and the remaining activity at 10 µM is 104%.
As to `COC(=N)c1nc2c(ccc3c(=O)n(Cc4ccccc4)cnc32)s1` [Compound 6c, Methyl 7-benzyl-6-oxo-6,7-dihydrothiazolo[5,4-h]quinazoline-2-carbimidate], the IC50 in series [1] was in the range of 3 to 13 µM. Moreover, the IC50 at 48 h came out at 8 µM in series [2] and 7 µM in series [4]. Also, in series [3], the remaining activity at 1 µM came to 81%. Moreover, the remaining activity at 10 µM in series [3] amounted to 91%.
Regarding `COC(=N)c1nc2cc3ncn(Cc4ccccc4)c(=O)c3cc2s1` [Compound 6b, Methyl 7-benzyl-8-oxo-7,8-dihydrothiazolo[5,4-g]quinazoline-2-carbimidate], in series [1], the IC50 is 1 to 3 µM. For the same molecule, the IC50 at 48 h in series [2] worked out at 2 µM; in series [4], 1 µM. In addition, the remaining activity at 1 µM in series [3] worked out at 101%. Also, the remaining activity at 10 µM in series [3] was found to be 107%.
Regarding `COC(=N)c1nc2cc3c(Nc4ccc(OC)cc4F)ncnc3cc2s1` [Compound 15a, Methyl 8-[(2-fluoro-4-methoxyphenyl)amino]thiazolo[4,5-g]quinazoline-2-carbimidate], in series [3], the remaining activity at 1 µM is 90% and the remaining activity at 10 µM worked out at 70%. For the same molecule, the IC50 at 48 h in series [4] was more than 25 µM.
Consider `COC(=N)c1nc2ccc3c(=O)n(Cc4ccccc4)cnc3c2s1` [Compound 6d, Methyl 7-benzyl-6-oxo-6,7-dihydrothiazolo[4,5-h]quinazoline-2-carbimidate], for which the IC50 in series [1] was 2 to 11 µM. In series [2], this molecule had an IC50 at 48 h of 10 µM. Besides, in series [3], the remaining activity at 1 µM is 94% and the remaining activity at 10 µM stood at 105%. This molecule also returned an IC50 at 48 h in series [4] of 8 µM.
As for `COC(=N)c1nc2ccc3ncnc(Nc4ccc(OC)cc4F)c3c2s1` [Compound II, methyl 9-[(2-fluoro-4-methoxyphenyl)amino]thiazolo[5,4-f]quinazoline-2-carbimidate, reference compound], the IC50 at 48 h is 4 µM in series [2] and 5 µM in series [4]. Also, in series [5], the half-maximal inhibitory concentration (IC50) was 0.36 nM.
As for `COC(=N)c1nc2ccc3ncn(Cc4ccccc4)c(=O)c3c2s1` [Compound I, methyl 8-benzyl-9-oxo-8,9-dihydrothiazolo[5,4-f]quinazoline-2-carbimidate, reference compound], in series [2], the IC50 at 48 h is 20 µM. The IC50 in series [5] was 300 nM. Besides, in series [3], the remaining activity at 1 µM amounted to 73% and the remaining activity at 10 µM amounted to 23%. Besides, the IC50 at 48 h in series [4] was 17 µM.

A word on the IC50: it is the concentration that inhibits the measured activity by half.
